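Tested at 5 concentrations; 48 h exposure; 96-well plates; endpoints linearly interpolated, else capped at highest concentration. GI50: concentration for 50% inhibition of growth. Definition used: TGI = concentration required for complete inhibition of growth.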 Some results are limits rather than exact numbers.

The values below come from PubChem BioAssay (NCI).

Some test systems named below: HS 578T breast; SF-268 CNS; SK-MEL-5 melanoma; U251 CNS; TK-10 renal; HCC-2998 colon; HT29 colon; MDA-MB-231 breast; SNB-75 CNS; PC-3 prostate.
What all share (experiment): NCI anticancer screen, dose series, 48 h

For `COc1ccc(N=Cc2c(O)ccc3c2oc2cc(Cl)c(O)c(Cl)c23)cc1`, the GI50 is 4.45 µM in the test on HS 578T breast; 6.68 µM with SF-268 CNS; 10.5 µM in the test on SK-MEL-5 melanoma; 5.39 µM with U251 CNS; 20.3 µM in the test on TK-10 renal; 15 µM in the test with HCC-2998 colon. Moreover, the GI50 was 16.2 µM in the test on HT29 colon, 14.7 µM with MDA-MB-231 breast, 12.7 µM with SNB-75 CNS and 14.8 µM in the test on PC-3 prostate. Further, the TGI amounted to 23.1 µM in the test with HS 578T breast; 29.6 µM in the test on SF-268 CNS; 27.7 µM with SK-MEL-5 melanoma; 34.9 µM in the test on U251 CNS; 48.3 µM in the test on TK-10 renal; 29.3 µM in the test with HCC-2998 colon. In addition, the TGI in the test with HT29 colon came out at 37.8 µM; with MDA-MB-231 breast, 48.4 µM; in the test on SNB-75 CNS, 48.8 µM; with PC-3 prostate it was 57.3 µM.

`C=CCC(N[C@@H](CO)c1ccccc1)c1cn(Cc2ccccc2Cl)c(=O)n(Cc2ccccc2Cl)c1=O` (stereo partly specified): the GI50 in the test with HS 578T breast, with SF-268 CNS, in the test on SK-MEL-5 melanoma, in the test with U251 CNS, in the test on TK-10 renal and in the test on HCC-2998 colon was above 100 µM in each case. Moreover, the GI50 was above 100 µM with HT29 colon, 78 µM in the test with MDA-MB-231 breast, 79.3 µM in the test with SNB-75 CNS and 83.9 µM with PC-3 prostate. In addition, the TGI in the test with HS 578T breast, in the test on SF-268 CNS, in the test on SK-MEL-5 melanoma, in the test with U251 CNS, in the test with TK-10 renal and in the test on HCC-2998 colon was above 100 µM each time. Moreover, the TGI with HT29 colon, in the test on MDA-MB-231 breast, in the test on SNB-75 CNS and in the test with PC-3 prostate was above 100 µM throughout.

As to `O=c1cc(-c2ccccc2)oc2ccc(OC/C(=N/O)c3ccccc3)cc12`, the GI50 with SF-268 CNS was 2.08 µM; in the test on SK-MEL-5 melanoma, 1.82 µM; in the test with U251 CNS, 2.35 µM; with TK-10 renal, above 50 µM; in the test with HCC-2998 colon, 11 µM; in the test with HT29 colon, 2.02 µM. The GI50 is 2.63 µM in the test on MDA-MB-231 breast, 2.76 µM in the test with SNB-75 CNS and 2.46 µM in the test with PC-3 prostate. Also, the TGI with SF-268 CNS was 13.2 µM; with SK-MEL-5 melanoma it was 11.7 µM; in the test with U251 CNS, above 50 µM; in the test on TK-10 renal, above 50 µM; with HCC-2998 colon, above 50 µM; in the test on HT29 colon it was above 50 µM. The TGI in the test with MDA-MB-231 breast is above 50 µM; in the test with SNB-75 CNS it was above 50 µM; in the test with PC-3 prostate it was 16.1 µM.

For the molecule `CCC(CC)c1nc(Nc2ccc(C(=O)OC)cc2)c2ccccc2n1`, the GI50 in the test with HS 578T breast was 10.9 µM; in the test on SF-268 CNS it was 6.69 µM; in the test on SK-MEL-5 melanoma, 7.82 µM; in the test on U251 CNS, 8.5 µM; in the test on TK-10 renal it was 13.2 µM; with HCC-2998 colon it was 8.66 µM. The GI50 was 8.59 µM in the test on MDA-MB-231 breast and 7.8 µM in the test with PC-3 prostate. Besides, the TGI in the test on HS 578T breast was 26.5 µM; in the test with SF-268 CNS it was 19.1 µM; with SK-MEL-5 melanoma, 16.1 µM; in the test with U251 CNS it was 19 µM; in the test on TK-10 renal it was 25.7 µM; in the test with HCC-2998 colon, 17.1 µM. Also, the TGI in the test with MDA-MB-231 breast is 22.8 µM; in the test on PC-3 prostate, 17.1 µM.

As for `NCCCNc1nc2ccccc2c2c(=O)c3cc(F)cc(F)c3sc12`, the GI50 in the test with HS 578T breast is 1.47 µM; in the test with SF-268 CNS it was 1.63 µM; with SK-MEL-5 melanoma, 1.68 µM; in the test with TK-10 renal it was 1.69 µM; in the test on HCC-2998 colon, 1.69 µM; with MDA-MB-231 breast, 1.49 µM. The GI50 in the test with SNB-75 CNS is 1.36 µM; in the test on PC-3 prostate it was 1.67 µM. The TGI came to 3.09 µM with HS 578T breast; 3.32 µM in the test on SF-268 CNS; 3.09 µM in the test with SK-MEL-5 melanoma; 3.18 µM in the test on TK-10 renal; 3.36 µM in the test on HCC-2998 colon; 3.02 µM with MDA-MB-231 breast. For the same molecule, the values for the TGI in the test on SNB-75 CNS and in the test on PC-3 prostate were 2.7 µM and 3.24 µM, respectively.

In the case of `COC1=CC(c2ccc[nH]2)=N/C1=C\c1[nH]c(C)c(CC(=O)OCc2ccccc2)c1CCC(=O)OCc1ccccc1`, the GI50 was 0.395 µM with HS 578T breast; 0.464 µM in the test on SF-268 CNS; 0.345 µM in the test on U251 CNS; 0.406 µM with TK-10 renal; 0.287 µM with HT29 colon; 0.224 µM in the test with MDA-MB-231 breast. Also, the GI50 in the test on SNB-75 CNS is 0.275 µM; in the test on PC-3 prostate, 0.346 µM. In addition, the TGI amounted to 2.87 µM with HS 578T breast; 1.68 µM in the test with U251 CNS; 2.1 µM with TK-10 renal; 2.5 µM with HT29 colon; 1.67 µM with MDA-MB-231 breast; 1.53 µM in the test on SNB-75 CNS. For the same molecule, the TGI in the test with PC-3 prostate was 12.6 µM.

With `COc1cc(/C=C2\C[C@H]3[C@@H]4CC=C5C[C@@H](O)CC[C@]5(C)[C@H]4CC[C@]3(C)[C@H]2O)ccc1OCCN1CCCC1`, the GI50 is 11.1 µM with HS 578T breast; 9.72 µM in the test with SF-268 CNS; 9.58 µM with SK-MEL-5 melanoma; 12.8 µM with U251 CNS; 11.7 µM with TK-10 renal; 10.1 µM with HCC-2998 colon. Besides, the GI50 is 13.2 µM in the test with HT29 colon, 11.7 µM in the test on MDA-MB-231 breast and 7.4 µM in the test with PC-3 prostate. Besides, the TGI in the test with HS 578T breast was found to be 25.1 µM; in the test on SF-268 CNS, 22.8 µM; in the test with SK-MEL-5 melanoma, 23.6 µM; in the test with U251 CNS, 40.4 µM; in the test with TK-10 renal, 24.3 µM; in the test on HCC-2998 colon, 20.6 µM. The TGI in the test on HT29 colon was above 50 µM; with MDA-MB-231 breast it was 23 µM; in the test on PC-3 prostate, 15.1 µM.

Regarding `CC[C@H]1CN2CCc3cc(OC)c(OC)cc3C2C[C@@H]1CC1NCCc2cc(OC)c(OC)cc21` (stereo partly specified), the TGI in the test with HS 578T breast came out at 1.75 µM; in the test with SK-MEL-5 melanoma, 0.0928 µM; with TK-10 renal it was 0.572 µM; in the test with HCC-2998 colon, 0.065 µM; with HT29 colon, 0.0479 µM; with MDA-MB-231 breast, 0.0994 µM. For the same molecule, the TGI in the test on PC-3 prostate amounted to 0.275 µM.

On to `O=C(/C=C/c1ccco1)c1cc(F)c(Cl)cc1Cl`, for which the GI50 with HS 578T breast is 13.7 µM; in the test on SF-268 CNS it was 20 µM; with SK-MEL-5 melanoma it was 17 µM; in the test on U251 CNS, 19.3 µM; in the test with TK-10 renal it was 28.4 µM; in the test with HT29 colon it was 24.3 µM. For the same molecule, the GI50 in the test on MDA-MB-231 breast was 21.9 µM; in the test with SNB-75 CNS, 22.3 µM; with PC-3 prostate, 24.8 µM. Moreover, the TGI was 39.6 µM with HS 578T breast; 45.5 µM in the test with SF-268 CNS; 32.5 µM in the test on SK-MEL-5 melanoma; 46 µM in the test on U251 CNS; 90.1 µM in the test with TK-10 renal; 52.1 µM with HT29 colon. In addition, the figures for the TGI in the test on MDA-MB-231 breast, in the test on SNB-75 CNS and with PC-3 prostate were 58 µM, 44.2 µM and 80.1 µM, respectively.

As for `COc1ccc2sc3cccc(NCCN(C)C)c3c(=O)c2c1`, the GI50 in the test on HS 578T breast is 2.83 µM; in the test with SF-268 CNS, 3.81 µM; in the test with SK-MEL-5 melanoma, 2.45 µM; with TK-10 renal, 4.06 µM; in the test on HCC-2998 colon, 1.83 µM; with HT29 colon it was 2.03 µM. For the same molecule, the GI50 with MDA-MB-231 breast was 1.57 µM; in the test on SNB-75 CNS, 2.9 µM; in the test on PC-3 prostate, 2.96 µM. Moreover, the TGI in the test with HS 578T breast is 13.1 µM; in the test with SF-268 CNS, 14.4 µM; in the test with SK-MEL-5 melanoma it was 6.27 µM; in the test with TK-10 renal, 14.3 µM; in the test on HCC-2998 colon, 3.39 µM; in the test with HT29 colon it was 4.6 µM. Further, the TGI in the test with MDA-MB-231 breast is 4.29 µM; in the test on SNB-75 CNS it was 12.8 µM; in the test on PC-3 prostate, 11.4 µM.

In the case of `COc1c(O)c(OC)c2oc(-c3ccc(O)c(O)c3)c(OC)c(=O)c2c1O`, the TGI was 10.3 µM with SF-268 CNS; 50.8 µM in the test on SK-MEL-5 melanoma; 78.1 µM with U251 CNS; 99.5 µM with TK-10 renal; 98 µM in the test with HCC-2998 colon; above 100 µM in the test with HT29 colon. The values for the TGI in the test with MDA-MB-231 breast, in the test on SNB-75 CNS and with PC-3 prostate were above 100 µM, 11.5 µM and above 100 µM, respectively.

With `CCOC(=O)c1ccc(Nc2sc(C(=O)c3ccc(Br)cc3)c(N)c2C#N)cc1`, the GI50 is 1.48 µM in the test on HS 578T breast; 2.56 µM in the test on SF-268 CNS; 1.02 µM with SK-MEL-5 melanoma; 1.49 µM in the test with U251 CNS; above 100 µM in the test with HCC-2998 colon; 0.447 µM with HT29 colon. For the same molecule, the GI50 is 2.92 µM in the test on MDA-MB-231 breast, 0.496 µM in the test on SNB-75 CNS and 0.797 µM in the test with PC-3 prostate. For the same molecule, the TGI in the test with HS 578T breast, in the test with SF-268 CNS, in the test with SK-MEL-5 melanoma, with U251 CNS, with HCC-2998 colon and in the test with HT29 colon was above 100 µM each time. The TGI in the test with MDA-MB-231 breast is above 100 µM; in the test with SNB-75 CNS it was 7.61 µM; with PC-3 prostate it was above 100 µM.

As for `CC(C)N1CC2CN(Cc3ccccc3)CC(C1)C2=O`, the TGI with HS 578T breast, with SF-268 CNS, in the test on U251 CNS, in the test with TK-10 renal, in the test on HCC-2998 colon and in the test on HT29 colon was above 100 µM each time. Moreover, the TGI with MDA-MB-231 breast, in the test with SNB-75 CNS and in the test with PC-3 prostate was above 100 µM each time.

Regarding `C=C(C)C1CC/C(C)=C/CCC2(C)OC2CC/C(CO)=C\C1O` (stereo unspecified), the TGI in the test with HS 578T breast is 53.5 µM; with SF-268 CNS, above 100 µM; with U251 CNS it was above 100 µM; in the test with TK-10 renal it was above 100 µM; in the test on HCC-2998 colon it was above 100 µM; in the test on HT29 colon it was above 100 µM. The TGI in the test with MDA-MB-231 breast, in the test with SNB-75 CNS and with PC-3 prostate was above 100 µM in each case.
